Test results published in EP0098141A2, “Prostaglandin D analogues, process for their preparation and compositions containing them” (ONO PHARMACEUTICAL CO., LTD., priority 1982, dated 1984).

Assays:
[1] = Acute toxicity by intraperitoneal administration in mice; conditions: mouse, in vivo, ip
Experimental: The acute toxicity of the compounds of the present invention was more than 100 mg/kg by intraperitoneal administration in mice, so that the PGD analogues of the present invention may be considered to be sufficiently safe and suitable for medical use.

[2] = tested on: cells originated from human mouth tumor (KB-cells); test: Inhibition of proliferation using cells originated from human mouth tumor (KB-cells); type: cell-based; conditions: 96 h, stationary culture at 37°C for 4 days, surviving cell number (Trypan Blue) relative to control
Experimental: The test on the inhibition of proliferation of cells originated from human mouth tumor was conducted by a well known method. The cells originated from human mouth tumor (KB-cells) were added to Eagle's MEM culture solution containing 10% bovine fetal serum, the number of cells in the culture solution was adjusted to 1x10^5 cells/ml, a solution in ethanol of the test compound was added to give a concentration of […] and the mixture was subjected to stationary culture at 37°C for 4 days. As a control, a culture solution containing 0.1% of ethanol was similarly cultured. After the culture, the culture solutions were stained by the Trypan Blue staining method, and the surviving cell number was measured to determine the degree of inhibition relative to the control.

[3] = tested on: human myelogenous leukemic cells (HL-60); test: Inhibition of proliferation using human myelogenous leukemic cells (HL-60); type: cell-based; conditions: 96 h, HL-60 cells, stationary culture at 37°C for 4 days, surviving cell number (Trypan Blue) relative to control
Experimental: The test on the inhibition of proliferation of human myelogenous leukemic cells was conducted by a well known method. The human myelogenous leukemic cells (HL-60) were added to an RPMI culture solution containing 10% bovine fetal serum, the number of cells in the culture solution was adjusted to 1x10^5 cells/ml, a solution in ethanol of the test compound was added to give a concentration of 5µg/ml or 1 µg/ml, and the mixture was subjected to stationary culture at 37°C for 4 days. As a control, a culture solution containing 0.1% of ethanol was similarly cultured. The culture solutions were stained by the Trypan Blue staining method, and the surviving cell number was measured to determine the degree of inhibition relative to the control.

Ehrlich ascites tumor = test: Prolongation of survival of mice inoculated with Ehrlich ascites tumor; type: in vivo; design: unit not given here; conditions: ICR mice inoculated intraperitoneally with Ehrlich ascites tumor cells (3 x 10^6/mouse) on day 0, 20 mg/kg/day intraperitoneally from day 1 to day 5
Experimental: The test on the prolongation of survival of mice inoculated with Ehrlich ascites tumor was conducted by a well known method. ICR mice, weighing 25 - 30 g, were inoculated with Ehrlich ascites tumor cells (3 x 10^6/mouse) intraperitoneally on day 0. A test compound was administered to mice intraperitoneally at a dose of 20 mg/kg/day from day 1 to day 5. Throughout the experiments, each group consisted of six mice (eight mice in control group). The effects of the test compounds were judged by the prolongation of survival time in days. In the Table 2, T/C was calculated below. [formula]

Structure (SMILES)	LD50 [1] [mg/kg]	inhibition at 1 µg/mL [2] [%]	inhibition at 5 µg/mL [2] [%]	inhibition at 1 µg/mL [3] [%]	inhibition at 5 µg/mL [3] [%]	T/C (Ehrlich ascites tumor)
CCCCC[C@H](O)/C=C/[C@H]1C(=O)C[C@H](O)[C@@H]1C/C=C\CCCC(=O)CO [Compound 1, 2-Decarboxy-2-glycoloyl-PGD2]	156	23.5	100	20.4	96.7	75.3
CCCCC[C@H](O)/C=C/[C@H]1C(=O)C=C[C@@H]1C/C=C\CCCC(=O)CO [Compound 2, 2-Decarboxy-2-glycoloyl-9-deoxy-Δ^9-PGD2]		90.9	100	100	100	70.5
CCCCCC=CC=C1C(=O)C=CC1CC=CCCCC(=O)CO (stereo not shown) [Compound 3, (5Z,9Z,14EZ)-1-Hydroxymethylprosta-5,9,12,14-tetraene-1,11-dione]		10.6	100	100	100	244.6
CCCCC[C@H](O)/C=C/[C@H]1C(=O)C=C[C@@H]1C/C=C\CCCC(=O)NS(C)(=O)=O [Compound 4, 9-Deoxy-Δ^9-PGD2 methanesulfonylamide]		12.6	25.5	3.9	1.5	
CCCCCC=CC=C1C(=O)C=CC1CC=CCCCC(=O)NS(C)(=O)=O (stereo not shown) [Compound 5, (5Z,9Z,14EZ)-N-Methanesulfonyl-11-oxoprosta-5,9,12,14-tetraen-1-amide]		0.9	34.6	0	78.1	
CCCCC[C@H](O)/C=C/[C@H]1C(=O)C[C@H](O)[C@@H]1C/C=C\CCCC(=O)N(C)C [Compound 6, (SZ,13E)-(9a,15S)-N,N-Dimethyl-9,15-dihydroxy-11-oxoprosta-5,13-dien-1-amide]		19.6	100	9.9	99.1	
CCCCC[C@H](O)/C=C/[C@H]1C(=O)C=C[C@@H]1C/C=C\CCCC(=O)N(C)C [Compound 7, (5Z,9Z,13E)-(15S)-N,N-Dimethyl-11-oxo-15-hydroxyprosta-5,9,13-trien-l-amide]		23.7	100	41.8	100	
CCCCCC=CC=C1C(=O)C=CC1CC=CCCCC(=O)N(C)C (stereo not shown) [Compound 8, (5Z,9Z,14EZ)-N,N-Dimethyl-11-oxoprosta-5,9,12,14-tetraen-1-amide]		9.5	100	30.9	100	
CCCCC[C@H](O)/C=C/[C@H]1C(=O)C[C@H](O)[C@@H]1C/C=C\CCCC(N)=O [Compound 9, (5Z,13E)-(9α,15S)-9,15-Dihydroxy-11-oxoprosta-5,13-dien-1-amide]		2.8	98.8	21.5	97.8	
CCCCC[C@H](O)/C=C/[C@H]1C(=O)C=C[C@@H]1C/C=C\CCCC(N)=O [Compound 10, (52,9Z,13E)-(15S)-11-Oxo-15-hydroxyprosta-5,9,13-trien-1-amide]	167	15.4	100			
CCCCCC=CC=C1C(=O)C=CC1CC=CCCCC(N)=O (stereo not shown) [Compound 11, (5Z,9Z,14EZ)-11-Oxoprosta-5,9,12,14-tetraen-1-amide]		0.9	100			155.6
